Values quoted from earlier work, collected in patent US12064400B1 (priority 2022, dated 2024).

Experiments:
[1] = in vivo
[2] = in vivo; remark: listed apart in the source

SMILES | time in which a human body may absorb peak levels [1] | higher risk for developing a bleed when taking naproxen [2] | people in whom common and serious side effects may occur [2]
COc1ccc2cc([C@H](C)C(=O)O)ccc2c1 [naproxen sodium] | one to two | – | –
COc1ccc2cc([C@H](C)C(=O)O)ccc2c1 [naproxen] | two to four | ten | three to nine
